Consider 23 compounds from patent US8497283B2, “Autotaxin inhibitors” (Merck Patent GmbH, priority 2009, dated 2013).

The assay concerns the target T1, recombinant autotaxin (Homo sapiens, UniProt Q13822).
T1 construct: made in house; host or cells: Hi5 insect cells (baculovirus)
The experiment in a line: Autotaxin assay (Amplex Red fluorescence, LPC substrate). Format: biochemical. The following applies: for IC50: ten serial 1:3 dilutions starting at 30 μM, duplicates, 75 μM LPC, values given as upper bounds; for % CTRL (1E−05): percent of uninhibited control (100%) at 1E−05 M compound. On the procedure:
Autotaxin activity is measured indirectly by means of Amplex Red Reagent. In this course, Amplex Red is measured as fluorogenic indicator for generated H2O2. Autotaxin converts substrate lysophosphatidylcholine (LPC) to phosphocholine and lysophosphatidylic acid (LPA). After the conversion phosphocholine is reacted with alkaline phosphatase to obtain inorganic phosphate and choline. During the next step choline is oxidized with choline oxidase to yield betaine, whereby H2O2 is generated. H2O2 reacts with Amplex Red Reagent in the presence of peroxidase (Horseradish peroxidase) in an 1:1 stochiometry and yields highly fluorescent resorufin. The generated fluorescence is measured in a reaction-dependent kinetic mode in order to enable subtraction of fluorescence signals of possible other fluorescent compounds that are not part of the reaction from total measured fluorescence.
1.5 μl of a standard solution or of the compounds of the invention are dissolved in 20 mM Hepes pH 7.2 with maximally 7.7% DMSO in individual concentrations. The resulting solution is pre-incubated together with 10 μl (16 ng) of highly purified recombinant autotaxin in a black 384-hole microtiter plate for 30 min at 22° C.
Thereafter, the reaction is started through the addition of 5 μl L-a-lysophosphatidyl-choline (LPC), whereby the final concentration of LPC is 75 μM. The mixture is incubated for 90 min. at 37° C. After the incubation Amplex Red Reagent, peroxidase (Horseradish peroxidase) and choline oxidase are added. The fluorescence is immediately measured at a wavelength of 612 nm with an excitation wavelength of 485 nm in a “Tecan Ultra multimode” fluorescence reader. The activity of autotaxin is indirectly calculated via the amount of detected generated H2O2.
For IC50 analysis, ten serial 1:3 dilutions starting at 30 μM for each compound were run in duplicates.
IC50 values were calculated on normalized data. For normalization, control wells were added to each assay plate and the signal of uninhibited control wells was set to 100%, whereas the signal inhibited by 500 μM C14 LPA, (Avanti Polar Lipids, Cat#857120P) was set to 0%. Curves were fitted and IC50 values calculated by the following model using proprietory analysis software: Y=Bottom+(100−Bottom)/(1+10^((Log IC50−X)*HillSlope))
Where X is the logarithm of concentration. Y is the response;
Y starts at Bottom and goes to Top with a sigmoid shape.
Protein: Recombinant autotaxin (baculoviral Hi5 expression)
Substrate: L-a-lysophosphatidyl choline (chicken egg); Avanti Polar Lipids #830071P
Standard: C14 LPA, Avanti Polar Lipids, Cat#857120P
Detection Reagent Amplex Red Reagent; Invitrogen #A12222; dissolved in 1.923 ml of DMSO peroxidase Type VI-A (horseradish), Sigma #P6782; dissolved in 7.45 ml of test buffer, Choline Oxidase; Sigma #C5896; dissolved in 2.47 ml test buffer
Detection Reagent Mix: 1:100 dilution of Amplex Red Regent in test buffer
Test buffer: 200 mM Tris-HCl, Merck, Cat #1.08219, pH 7.9; 0.1% BSA, lipid free, Roche Cat#775835

What is called IC50 is the point on the concentration scale where inhibition reaches its midpoint. `NC(=O)c1c(NC(=O)Cc2ccc(Cl)cc2F)sc2c1CCN(Cc1ccncc1)C2` [Compound 21, 2-[2-(4-Chloro-2-fluoro-phenyl)-acetylamino]-6-pyridin-4-ylmethyl-4,5,6,7-tetrahydro-thieno[2,3-c]pyridine-3-carboxylic acid amide]: the concentration for half-maximal inhibition (IC50) is < 10 µM.
Same read-out and setting: under `NC(=O)c1c(NC(=O)Cc2ccc(Cl)cc2F)sc2c1CCN(C(=O)Cc1cccnc1)C2` [Compound 22, 2-[2-(4-Chloro-2-fluoro-phenyl)-acetylamino]-6-(2-pyridin-3-yl-acetyl)-4,5,6,7-tetrahydro-thieno[2,3-c]pyridine-3-carboxylic acid amide] stands < 10 µM; under `NC(=O)c1c(NC(=O)Cc2ccc(Cl)cc2F)sc2c1CCN(C(=O)Cc1ccncc1)C2` [Compound 23, 2-[2-(4-Chloro-2-fluoro-phenyl)-acetylamino]-6-(2-pyridin-4-yl-acetyl)-4,5,6,7-tetrahydro-thieno[2,3-c]pyridine-3-carboxylic acid amide], < 10 µM.
For `NC(=O)c1c(NC(=O)Cc2ccc(Cl)cc2F)sc2c1CCN(C(=O)CCc1ccccn1)C2` [Compound 24, 2-[2-(4-Chloro-2-fluoro-phenyl)-acetylamino]-6-(3-pyridin-2-yl-propionyl)-4,5,6,7-tetrahydro-thieno[2,3-c]pyridine-3-carboxylic acid amide], the IC50 was < 10 µM.
Still for that read-out and setting: for `COC(=O)c1c(NC(=O)Nc2ccc(Cl)cc2)sc2c1CCN(C(=O)c1ccc3[nH]nnc3c1)C2` [Compound 25, 6-(1H-Benzotriazole-5-carbonyl)-2-[3-(4-chloro-phenyl)-ureido]-4,5,6,7-tetrahydro-thieno[2,3-c]pyridine-3-carboxylic acid methyl ester] the value was < 30 µM; for `COC(=O)c1c(NC(=O)Nc2ccc(Cl)cc2)sc2c1CCN(C(=O)c1ccc3[nH]c(=O)oc3c1)C2` [Compound 26, 2-[3-(4-Chloro-phenyl)-ureido]-6-(2-oxo-2,3-dihydro-benzooxazole-6-carbonyl)-4,5,6,7-tetrahydro-thieno[2,3-c]pyridine-3-carboxylic acid methyl ester], < 10 µM.
`O=C(Nc1ccc(Cl)cc1)Nc1sc2c(c1C(=O)N1CCCC1)CCN(C(=O)c1ccc3[nH]nnc3c1)C2` [Compound 27, 1-[6-(1H-Benzotriazole-5-carbonyl)-3-(pyrrolidine-1-carbonyl)-4,5,6,7-tetrahydro-thieno[2,3-c]pyridin-2-yl]-3-(4-chloro-phenyl)-urea]: the “% CTRL (1E−05)” value is recorded as 52%.
Take `NC(=O)c1c(NC(=O)Nc2ccc(Cl)cc2)[nH]c2cc(C(=O)Nc3ccc4[nH]c(=O)oc4c3)ccc12` [Compound 28, 2-[3-(4-Chloro-phenyl)-ureido]-1H-indole-3,6-dicarboxylic acid 3-amide 6-[(2-oxo-2,3-dihydro-benzooxazol-6-yl)-amide]]: the IC50 is < 30 µM.
The same measure, in the same setting: for `O=C(Cc1ccc(Cl)cc1F)Nc1nc2ccc(C(=O)Nc3ccc4[nH]c(=O)oc4c3)cc2s1` [Compound 29, 2-[2-(4-Chloro-2-fluoro-phenyl)-acetylamino]-benzothiazole-6-carboxylic acid (2-oxo-2,3-dihydro-benzooxazol-6-yl)-amide] the value was < 10 µM.
With `O=C(Nc1ccc(C(F)(F)F)cc1)Nc1nc2ccc(C(=O)Nc3ccc4[nH]c(=O)oc4c3)cc2s1` [Compound 30, 2-[3-(4-Trifluoromethyl-phenyl)-ureido]-benzothiazole-6-carboxylic acid (2-oxo-2,3-dihydro-benzooxazol-6-yl)-amide], the “% CTRL (1E−05)” value was 93%.
For the compound `O=C(Nc1ccc(Cl)cc1)Nc1nc2ccc(C(=O)Nc3ccc4[nH]c(=O)oc4c3)cc2s1` [Compound 31, 2-[3-(4-Chloro-phenyl)-ureido]-benzothiazole-6-carboxylic acid (2-oxo-2,3-dihydro-benzooxazol-6-yl)-amide], the “% CTRL (1E−05)” value worked out at 94%.
In the case of `O=C(Nc1ccc(C(F)(F)F)cc1)Nc1nc2ccc(C(=O)Nc3ccc4[nH]nnc4c3)cc2s1` [Compound 32, 2-[3-(4-Trifluoromethyl-phenyl)-ureido]-benzothiazole-6-carboxylic acid (1H-benzotriazol-5-yl)-amide], the “% CTRL (1E−05)” value is 64%.
`O=C(NCc1cc(Cl)cc(Cl)c1)c1[nH]nc2c1CCN(C(=O)c1ccc3[nH]nnc3c1)C2` [Compound 33, 6-(1H-Benzotriazole-5-carbonyl)-4,5,6,7-tetrahydro-2H-pyrazolo[3,4-c]pyridine-3-carboxylic acid 3,5-dichloro-benzylamide]: the concentration for half-maximal inhibition (IC50) was < 10 µM.
On to `O=C(NCc1ccc(Cl)cc1)c1[nH]nc2c1CCN(C(=O)c1ccc3[nH]nnc3c1)C2` [Compound 34, 6-(1H-Benzotriazole-5-carbonyl)-4,5,6,7-tetrahydro-2H-pyrazolo[3,4-c]pyridine-3-carboxylic acid 4-chloro-benzylamide], for which the IC50 is < 10 µM.
For `CC(CNC(=O)c1[nH]nc2c1CCN(C(=O)c1ccc3[nH]nnc3c1)C2)c1ccc(Cl)cc1` (centres unmarked) [Compound 35, 6-(1H-Benzotriazole-5-carbonyl)-4,5,6,7-tetrahydro-2H-pyrazolo[3,4-c]pyridine-3-carboxylic acid [2-(4-chloro-phenyl)-propyl]-amide], the half-maximal inhibitory concentration (IC50) is < 10 µM.
Consider `O=C(NCc1cc(C(F)(F)F)ccc1F)c1[nH]nc2c1CCN(C(=O)c1ccc3[nH]nnc3c1)C2` [Compound 36, 6-(1H-Benzotriazole-5-carbonyl)-4,5,6,7-tetrahydro-2H-pyrazolo[3,4-c]pyridine-3-carboxylic acid 2-fluoro-5-trifluoromethyl-benzylamide], for which the 50% inhibitory concentration (IC50) was < 30 µM.
Regarding `O=C(NCCc1ccc(Cl)c(Cl)c1)c1[nH]nc2c1CCN(C(=O)c1ccc3[nH]nnc3c1)C2` [Compound 37, 6-(1H-Benzotriazole-5-carbonyl)-4,5,6,7-tetrahydro-2H-pyrazolo[3,4-c]pyridine-3-carboxylic acid [2-(3,4-dichloro-phenyl)-ethyl]-amide], the half-inhibitory concentration (IC50) is < 10 µM.
On the same count and under the same terms, under `O=C(NCc1cc(Cl)ccc1Cl)c1[nH]nc2c1CCN(C(=O)c1ccc3[nH]nnc3c1)C2` [Compound 38, 6-(1H-Benzotriazole-5-carbonyl)-4,5,6,7-tetrahydro-2H-pyrazolo[3,4-c]pyridine-3-carboxylic acid 2,5-dichloro-benzylamide] stands < 10 µM; under `O=C(NCCc1ccc(Cl)cc1)c1[nH]nc2c1CCN(C(=O)c1ccc3[nH]nnc3c1)C2` [Compound 39, 6-(1H-Benzotriazole-5-carbonyl)-4,5,6,7-tetrahydro-2H-pyrazolo[3,4-c]pyridine-3-carboxylic acid [2-(4-chloro-phenyl)-ethyl]-amide], < 1 µM.
Take `O=C(NC(CO)Cc1ccc(Cl)cc1)c1[nH]nc2c1CCN(C(=O)c1ccc3[nH]nnc3c1)C2` (centres unmarked) [Compound 40, 6-(1H-Benzotriazole-5-carbonyl)-4,5,6,7-tetrahydro-2H-pyrazolo[3,4-c]pyridine-3-carboxylic acid [2-(4-chloro-phenyl)-1-hydroxymethyl-ethyl]-amide]: the “% CTRL (1E−05)” value is reported as 73%.
Same read-out and setting: under `COc1ccccc1CNC(=O)c1[nH]nc2c1CCN(C(=O)c1ccc3[nH]nnc3c1)C2` [Compound 41, 6-(1H-Benzotriazole-5-carbonyl)-4,5,6,7-tetrahydro-2H-pyrazolo[3,4-c]pyridine-3-carboxylic acid 2-methoxy-benzylamide] stands 66%.
As to `O=C(NCCc1cccc(Cl)c1)c1[nH]nc2c1CCN(C(=O)c1ccc3[nH]nnc3c1)C2` [Compound 42, 6-(1H-Benzotriazole-5-carbonyl)-4,5,6,7-tetrahydro-2H-pyrazolo[3,4-c]pyridine-3-carboxylic acid [2-(3-chloro-phenyl)-ethyl]-amide], the 50% inhibitory concentration (IC50) was < 30 µM.
Same read-out and setting: for `O=C(NCCc1ccc([N+](=O)[O-])cc1)c1[nH]nc2c1CCN(C(=O)c1ccc3[nH]nnc3c1)C2` [Compound 43, 6-(1H-Benzotriazole-5-carbonyl)-4,5,6,7-tetrahydro-2H-pyrazolo[3,4-c]pyridine-3-carboxylic acid [2-(4-nitro-phenyl)-ethyl]-amide] the value was < 10 µM.
